Experimental data reported in patent US20210315840A1, “SOLID ORAL DOSAGE FORMS OF KETAMINE DERIVATIVES” (priority 2017, published 2021).
Read-outs that look alike come from different tables or passages of the source.

How the values were obtained:
[1] = system: cryopreserved hepatocytes; assay: Hepatocyte stability assay, dog; conditions: 3 μM
Experimental: Test compound (3 μM) was incubated with cryopreserved hepatocytes in suspension. Samples are removed at 6 time points over the course of 120 minutes and analysed by LC-MS/MS.

CYP2D6 = CYP2D6 (Homo sapiens, UniProt P10635); assay: CYP inhibition assay CYP2D6; type: in vitro ADME
Text: (§1) Cytochrome P450s (CYPs) are a family of enzymes that play a primary role in the metabolism of a wide variety of drugs. 2R,6R-hydroxynorketamine was investigated for its potential to inhibit the action of 7 key CYP enzymes using an inhibition assay measuring reduction in the formation of metabolites compared to control.

CYP2C9 = CYP2C9 (Homo sapiens, UniProt P11712); assay: CYP inhibition assay CYP2C9; type: in vitro ADME
Text: as §1

Sequence of CYP2C9 (P11712 whole entry): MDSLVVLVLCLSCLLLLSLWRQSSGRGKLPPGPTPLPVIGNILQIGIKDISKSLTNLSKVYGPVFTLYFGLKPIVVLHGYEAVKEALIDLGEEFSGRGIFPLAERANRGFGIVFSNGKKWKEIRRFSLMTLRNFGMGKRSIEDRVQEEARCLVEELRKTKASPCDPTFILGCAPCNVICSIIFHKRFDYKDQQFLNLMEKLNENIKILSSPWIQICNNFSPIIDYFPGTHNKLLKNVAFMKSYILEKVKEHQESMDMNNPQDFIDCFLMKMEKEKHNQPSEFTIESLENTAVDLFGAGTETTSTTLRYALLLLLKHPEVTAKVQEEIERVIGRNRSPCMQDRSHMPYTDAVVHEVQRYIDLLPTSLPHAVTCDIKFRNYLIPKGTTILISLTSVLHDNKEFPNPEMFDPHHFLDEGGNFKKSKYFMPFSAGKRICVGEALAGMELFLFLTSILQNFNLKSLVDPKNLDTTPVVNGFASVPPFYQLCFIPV
Sequence of CYP2D6 (P10635 whole entry): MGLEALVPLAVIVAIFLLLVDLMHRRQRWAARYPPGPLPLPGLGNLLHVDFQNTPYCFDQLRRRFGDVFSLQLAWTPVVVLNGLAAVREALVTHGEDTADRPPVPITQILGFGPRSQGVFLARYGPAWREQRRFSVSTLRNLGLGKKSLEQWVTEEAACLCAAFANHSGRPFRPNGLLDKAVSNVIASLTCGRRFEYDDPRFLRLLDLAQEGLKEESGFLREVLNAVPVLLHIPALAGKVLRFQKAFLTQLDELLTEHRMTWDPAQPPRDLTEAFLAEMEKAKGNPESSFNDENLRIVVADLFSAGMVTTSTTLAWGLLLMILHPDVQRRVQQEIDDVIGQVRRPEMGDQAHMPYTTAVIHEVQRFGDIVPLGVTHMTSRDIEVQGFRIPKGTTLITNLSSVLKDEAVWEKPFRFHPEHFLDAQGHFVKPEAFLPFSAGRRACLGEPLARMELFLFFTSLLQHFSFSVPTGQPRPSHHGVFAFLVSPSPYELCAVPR

N[C@@]1(c2ccccc2Cl)CCC[C@@H](O)C1=O [2R,6R-hydroxynorketamine, 2R,6R-2-(2-Chlorophenyl)-2-(amino)-6-hydroxycyclohexanone]
CLint [1]: 4.72 μL/min/10^6 cells | t1/2 [1]: 4.9 h | substrate of p-gp or Breast Cancer Resistance Protein (BCRP) efflux transporters (Caco-2; Caco-2): not a substrate | permeability (in words) (Caco-2; Caco-2 permeability assay): high | Mean % Recovery (Caco-2; Direction = A2B): 98.9% | Mean Papp (Caco-2; Direction = A2B): 45.7 10^−6 cms^−1 | Papp Replicate 1 (Caco-2; Direction = A2B): 49.1 10^−6 cms^−1 | Papp Replicate 2 (Caco-2; Direction = A2B): 42.3 10^−6 cms^−1 | Mean % Recovery (Caco-2; Direction = B2A): 103% | Mean Papp (Caco-2; Direction = B2A): 50.7 10^−6 cms^−1 | Papp Replicate 1 (Caco-2; Direction = B2A): 52.8 10^−6 cms^−1 | Papp Replicate 2 (Caco-2; Direction = B2A): 48.5 10^−6 cms^−1 | inhibition of CYP2D6 (in words) (CYP2D6): did not inhibit | % Inhibition (CYP2D6; 0.4 μM): 3.16% | % Inhibition (CYP2D6; 1 μM): 6.65% | % Inhibition (CYP2D6; 4 μM): 11.5% | % Inhibition (CYP2D6; 10 μM): 9.41% | % Inhibition (CYP2D6; 40 μM): 11.2% | % Inhibition (CYP2D6; 100 μM): 5.73% | inhibition of CYP2C9 (in words) (CYP2C9): did not inhibit | % Inhibition (CYP2C9; 0.4 μM): 4.59% | % Inhibition (CYP2C9; 1 μM): 5.92% | % Inhibition (CYP2C9; 4 μM): 5.80% | % Inhibition (CYP2C9; 10 μM): 11.9% | % Inhibition (CYP2C9; 40 μM): −0.113% | % Inhibition (CYP2C9; 100 μM): −1.33%
